Reference: patent publication US20220107246A1, “NONCOVALENT TAGS AND RELATED METHODS FOR CYTOSOLIC DELIVERY OF MACROBIOMOLECULES” (University of Washington, priority 2019, published 2022)

Experiments:
HeLa cells [1] = assay: Toxicity study of CB and cholesterol tag (CellTiter-Blue); type: cell-based; settings: FIG. 14, HeLa cells
Protocol: Cytotoxicity of the tag was evaluated on HeLa cells. Briefly, cells were seeded in 96-well plates at 3,000 cells/well. CB, the tag, or tagged protein (BSA) was added at a series of concentrations from 10 μM to 3.3 nM. Untreated cells were used as control. After 48-h incubation, 10 μl of CellTiter-Blue reagent (Promega) was added to the wells and the culture was incubated for another 1 h. Cell viability was examined on a microplate reader (Tecan) at ex/em=560/590 nm and the toxicity was analyzed according to the manufacturer's protocol.

siRNA [2] = assay: Intercalation into siRNA monitored by fluorescence activation; type: binding; settings: compared with DNA (positive control)
Protocol: To test this new concept of cytosolic delivery, a conjugation-free methodology was investigated that incorporated small chemical tags to transform siRNA sufficiently hydrophobic, membrane-permeant, and self-deliverable. […] For a proof of concept, a number of existing oligonucleotide intercalators were tested, due to their potential to non-covalently attach the lipophilic moiety to siRNA. Although DNA intercalating dyes are well-studied and broadly available, selection of dsRNA intercalators is limited. […] DNA intercalating dyes apply a stretching force thus may or may not work on siRNA. Eight DNA intercalating dyes (molecular structures shown in FIG. 7) were evaluated utilizing a very convenient feature of these dyes, fluorescence activation upon intercalation into oligonucleotides. […] Therefore, ethidium was used in the following studies.
After 5-minute incubation, the mixture was diluted to 100 μL and the fluorescence was measured with the microplate reader. The fluorescence increment (J. B. Le Pecq, et al., DNA polyintercalating drugs: DNA binding of diacridine derivatives, Proc Natl Acad Sci USA 72(8) (1975) 2915-9; B. Gaugain, et al., DNA Bifunctional intercalators. 2. Fluorescence properties and DNA binding interaction of an ethidium homodimer and an acridine ethidium heterodimer, Biochemistry 17(24) (1978) 5078-88, each of which is incorporated herein by reference in its entirety), ΔIF, is the difference of fluorescence intensity of the tags in the presence or absence of siRNA.

siRNA [3] = assay: Gel electrophoresis of siRNA with intercalators; settings: high degree of intercalation
From the text: FIGS. 2A-2H illustrate tag design and characterizations. (FIG. 2A) Intercalation of conventional DNA intercalators into siRNA monitored by fluorescence activation. Ethidium and acridinium show similar fluorescence activation in both DNA and RNA, unlike the others. (FIG. 2B) Gel electrophoresis of siRNA with acridinium and ethidium at low and high degree of intercalation. […] (FIG. 2C) Screening hydrophobic compounds (after linking with ethidium) for mRNA (PPIB) knockdown in PC-3 cells. The numbers represent the compounds illustrated in FIG. 2D. Steroids such as cholesterol and stigmasterol offer the highest RNAi efficiency. (FIG. 2D) Molecular structures of the 14 exemplary chemical tags tested in the current study. The hydrophobic compounds are linked to ethidium via a C6 spacer. (FIG. 2E) Dose response of gene knockdown using siRNA tagged with ethidium-cholesterol (left) in PC-3 cells. […]
To test this new concept of cytosolic delivery, a conjugation-free methodology was investigated that incorporated small chemical tags to transform siRNA sufficiently hydrophobic, membrane-permeant, and self-deliverable. […] Eight DNA intercalating dyes (molecular structures shown in FIG. 7) were evaluated utilizing a very convenient feature of these dyes, fluorescence activation upon intercalation into oligonucleotides. […]

HeLa cells [4] = assay: Cyt c delivery and intracellular distribution (fluorescence imaging); type: cell-based
From the text: For a proof-of-principle application in therapeutic protein delivery, we selected cytochrome c (Cyt c), an intracellular signaling protein for apoptosis, as a model cargo molecule. To track Cyt c delivery and intracellular distribution, it was labeled with a fluorescent dye (AF488, green). Cell nucleic were counterstained by Hoechst 33258 (blue). […] This is expected because Cyt c is a highly water-soluble macromolecule (m.w. ˜12 kDa) that cannot diffuse through the cell membrane by itself. Instead, a minute amount of Cyt c was uptaken by cells but trapped in endosomes/lysosomes (not shown). […] This study proves the feasibility and potential of specific targeting of certain cell signaling nodes inside cells with protein drugs.
(§1) HeLa cells were seeded onto glass-bottom dishes and cultured overnight. The cells were treated with cyt c (tagged or untagged) of various concentrations in culture media for 4 h, washed, and cultured in fresh media for another 48 h. Cell viability was measured using the dual-color LIVE/DEAD Viability/Cytotoxicity Kit following the manufacturer's instruction.

HeLa cells [5] = assay: Cancer cell viability upon treatment with cytochrome c (LIVE/DEAD); type: cell-based; settings: Cyt c concentration of 2 μM for cell incubation
Protocol: as §1

HeLa cells [6] = assay: Cellular delivery of tagged proteins, confocal microscopy; type: cell-based
Protocol: Purified Coomassie blue-cholesterol tag powder was reconstituted with ethanol/water (v/v: 4/1) to a concentration of 1.6 mM and stored at 4° C. as a stock. Before tagging, the concentration of all the protein solutions was diluted to 25 μM. […] The mixture was quickly mixed by pipetting. The mixture was incubated in a water bath (37° C.) for 8 min and sonicated in an ultrasonic water bath for 30 seconds. After another round of 8-min water bath incubation at 37° C., the protein was ready for delivery.
(§2) Cells were seeded on glass-bottom dishes (poly-D-lysine treated, MatTek Corp.) one day before the experiments. The cell monolayer was washed once with serum-free RPMI 1640 media and treated with 2 mL of RPMI 1640 media containing the tagged protein at a final concentration of 1 μM for 2 h. In the end, the cells were counter-stained with Hoechst 33342 and Alexa Fluor® 594 labeled Wheat Germ Agglutinin (WGA-AF594), respectively. The cells were washed three times with RPMI 1640 and imaged on a Zeiss LSM 710 microscope.
To study the delivery effect at low temperature (4° C.), cell monolayers were pre-equilibrated with cold media (RPMI 1640) for 10 minutes at 4° C. and then treated with the cold solution of tagged protein for 3 h. The cells were washed with cold media and imaged immediately.

[7] = test system: PC-3, MDA-MB-231, SK-BR-3, DU-145, KB, and HEK-293T; assay: Cellular delivery of aprotinin-tag complex in additional cell types; type: cell-based; settings: protein-tag complex; independent of the cell lines
Protocol: To further rule out the scenario that the tagged proteins initially enter cells via endocytosis followed by an efficient endosomal escape, the confocal microscopy experiment were performed again using the small protein, aprotinin, at 4° C., a temperature that blocks endocytic membrane trafficking. […] To evaluate the generality of this protein tagging technology, it was tested using […] additional cell types besides HeLa cells (i.e., PC-3, MDA-MB-231, SK-BR-3, DU-145, KB, and HEK-293T). Cells exposed to protein (aprotinin)-tag complex and then stained for protinin and WGA to show the cell boundary. […] Perhaps more importantly, protein transfection directly into the cytosol was also achieved in further experiments of primary cells including human adipose-derived stem cells, primary human dermal fibroblasts, and primary human umbilical vein endothelial cells (HUVEC) (not shown).
as §2, with “The cells were washed three times with RPMI 1640 and imaged on a Zeiss LSM 710 microscope.” left out

**Q.** Which biocompatibility (HeLa cells [1]) does the source give for `CCOc1ccc(Nc2ccc(/C(=C3C=C/C(=[N+](/CC)Cc4cccc(S(=O)(=O)[O-])c4)C=C/3C)c3ccc(N(CC)Cc4cccc(S(=O)(=O)[O-])c4)cc3C)cc2)cc1.[Na+]` [Coomassie blue] here?
**A.** The biocompatibility was “biocompatible”.

**Q.** How did the “fluorescence activation upon intercalation into siRNA” value (siRNA [2]) turn out when `CC[n+]1c(-c2ccccc2)c2cc(N)ccc2c2ccc(N)cc21` [ethidium, reference compound] was run?
**A.** The value was “strong binding with siRNA”.

**Q.** What about the “unwinding of siRNA duplex” value (siRNA [3]) of the same compound?
**A.** The value was “does not”.

**Q.** “Cyt c alone: cytochrome c, intracellular signaling protein for apoptosis, m.w. ~12 kDa, untagged” was tested. Which “intracellular fluorescence of AF488-labeled Cyt c” value (HeLa cells [4]) did it give?
**A.** Its value is “minor dotted intracellular green fluorescence”.

**Q.** What about the cell viability (HeLa cells [5]) of the same compound?
**A.** Its cell viability is “no sign of toxicity”.

**Q.** Which “fluorescence activation upon intercalation into siRNA” value (siRNA [2]) does the source give for acridinium [reference compound] here?
**A.** Its value is “strong binding with siRNA”.

**Q.** What about the “unwinding of siRNA duplex” value (siRNA [3]) of the same compound?
**A.** The value was “unwound the siRNA double helix”.

**Q.** What does the source list for aprotinin?
**A.** intracellular fluorescence pattern of cholesterol-tagged protein (HeLa cells [6]; HeLa cells, protein tagged with CB-cholesterol tag): bright and homogeneous fluorescence intracellular distribution; intracellular fluorescence pattern without the cholesterol tag (HeLa cells [6]; HeLa cells, same condition, no tag): only a few punctate fluorescent spots; uptake by cells at 4° C. (HeLa cells [6]; low tag/protein ratio): virtually confined to the cell membrane; uptake by cells at 4° C. (HeLa cells [6]; optimal tag/aprotinin ratio): bright and homogeneous intracellular fluorescence; uptake by cells at 4° C. (HeLa cells [6]; without the tag): negligible; cytosolic delivery in additional cell types [7]: Efficient cytosolic delivery
